Test results published in ChEMBL document CHEMBL1909046, “DrugMatrix in vitro pharmacology data”.

Assays:
[1] = target: Sigma non-opioid intracellular receptor 1 (Homo sapiens, UniProt Q99720); test: DRUGMATRIX: Sigma1 radioligand binding (ligand: [3H] Haloperidol); type: cell membranes, Jurkat, Membrane; conditions: Not Active = under 50% inhibition at 10 µM; for Ki: read-out: Ki
Cytochrome P450 2C19 = Cytochrome P450 2C19 (Homo sapiens, UniProt P33261); conditions: bti-tn-5b1-4; further: in other assays of this panel Not Active means under 50% inhibition at 10 µM
Sequence of Cytochrome P450 2C19 (P33261 whole entry): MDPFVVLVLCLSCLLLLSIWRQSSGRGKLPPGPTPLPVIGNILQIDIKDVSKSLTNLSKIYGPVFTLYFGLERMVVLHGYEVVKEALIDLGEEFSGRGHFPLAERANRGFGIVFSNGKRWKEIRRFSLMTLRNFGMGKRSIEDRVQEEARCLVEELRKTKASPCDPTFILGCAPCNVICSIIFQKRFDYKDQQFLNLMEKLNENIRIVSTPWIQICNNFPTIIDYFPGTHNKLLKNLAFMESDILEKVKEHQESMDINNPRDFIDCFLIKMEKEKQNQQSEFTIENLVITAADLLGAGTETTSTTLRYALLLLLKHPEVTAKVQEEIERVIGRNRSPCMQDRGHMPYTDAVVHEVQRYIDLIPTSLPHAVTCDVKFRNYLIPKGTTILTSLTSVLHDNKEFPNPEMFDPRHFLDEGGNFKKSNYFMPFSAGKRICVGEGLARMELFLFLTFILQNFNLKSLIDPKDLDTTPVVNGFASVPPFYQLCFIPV

[2] = target: T1, Type-2 angiotensin II receptor (Homo sapiens, UniProt P50052); type: cell-based; conditions: cho-k1; further: in other assays of this panel Not Active means under 50% inhibition at 10 µM
T1 sequence (P50052 whole entry): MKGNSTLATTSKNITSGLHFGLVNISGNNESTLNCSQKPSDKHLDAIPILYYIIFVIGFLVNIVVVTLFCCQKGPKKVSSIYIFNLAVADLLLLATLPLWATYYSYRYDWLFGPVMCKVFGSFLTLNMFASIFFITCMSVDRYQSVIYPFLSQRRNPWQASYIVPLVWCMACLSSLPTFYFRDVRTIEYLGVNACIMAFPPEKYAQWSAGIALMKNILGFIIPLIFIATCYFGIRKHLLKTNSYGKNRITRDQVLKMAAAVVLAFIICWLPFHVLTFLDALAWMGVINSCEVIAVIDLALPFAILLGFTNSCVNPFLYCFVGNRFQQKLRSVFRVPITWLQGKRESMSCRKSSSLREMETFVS

[3] = DRUGMATRIX: Glutamate, NMDA, Phencyclidine radioligand binding (ligand: [3H] TCP); type: cell membranes, Rattus norvegicus, Wistar, Cerebral cortex, Membrane; conditions: Not Active = under 50% inhibition at 10 µM
Histamine H2 receptor = Histamine H2 receptor (Homo sapiens, UniProt P25021); type: cell membranes, CHO-K1, Membrane; further: in other assays of this panel Not Active means under 50% inhibition at 10 µM
Sequence of Histamine H2 receptor (P25021 whole entry): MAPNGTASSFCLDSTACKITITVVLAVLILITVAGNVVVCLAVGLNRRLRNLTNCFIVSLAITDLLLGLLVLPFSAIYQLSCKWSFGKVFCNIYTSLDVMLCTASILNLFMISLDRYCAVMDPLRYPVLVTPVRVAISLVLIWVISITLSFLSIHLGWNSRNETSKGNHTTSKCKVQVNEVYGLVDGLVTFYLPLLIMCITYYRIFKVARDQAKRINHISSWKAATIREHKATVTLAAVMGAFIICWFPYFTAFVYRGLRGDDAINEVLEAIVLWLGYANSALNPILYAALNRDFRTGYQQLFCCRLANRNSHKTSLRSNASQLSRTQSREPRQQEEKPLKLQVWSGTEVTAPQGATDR

Melanocortin receptor 3 = Melanocortin receptor 3 (Homo sapiens, UniProt P41968); type: cell membranes, HEK293, Membrane; conditions: hek293; further: in other assays of this panel Not Active means under 50% inhibition at 10 µM
Sequence of Melanocortin receptor 3 (P41968 whole entry): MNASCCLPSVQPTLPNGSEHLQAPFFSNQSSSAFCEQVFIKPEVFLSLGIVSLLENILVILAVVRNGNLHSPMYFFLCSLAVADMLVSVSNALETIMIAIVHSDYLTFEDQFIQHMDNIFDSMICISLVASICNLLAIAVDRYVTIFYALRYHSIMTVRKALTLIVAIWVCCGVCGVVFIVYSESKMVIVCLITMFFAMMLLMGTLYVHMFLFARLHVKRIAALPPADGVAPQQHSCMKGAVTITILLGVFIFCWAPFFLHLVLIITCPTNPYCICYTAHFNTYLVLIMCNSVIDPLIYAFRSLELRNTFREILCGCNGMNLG

[4] = target: Delta-type opioid receptor (Homo sapiens, UniProt P41143); type: cell membranes, Membrane; conditions: hek293; further: in other assays of this panel Not Active means under 50% inhibition at 10 µM
Sequence of Delta-type opioid receptor (P41143 whole entry): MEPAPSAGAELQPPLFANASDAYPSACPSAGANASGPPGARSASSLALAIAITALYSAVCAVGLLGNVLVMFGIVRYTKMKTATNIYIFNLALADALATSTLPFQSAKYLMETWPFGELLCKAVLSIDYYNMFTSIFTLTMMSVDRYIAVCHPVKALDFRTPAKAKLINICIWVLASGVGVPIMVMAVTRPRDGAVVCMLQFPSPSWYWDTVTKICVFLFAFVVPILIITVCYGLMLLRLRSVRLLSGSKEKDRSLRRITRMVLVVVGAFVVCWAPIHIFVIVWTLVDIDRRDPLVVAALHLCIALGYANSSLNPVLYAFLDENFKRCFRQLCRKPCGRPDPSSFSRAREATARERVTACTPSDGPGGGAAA

Sequence of Sigma non-opioid intracellular receptor 1 (Q99720 whole entry): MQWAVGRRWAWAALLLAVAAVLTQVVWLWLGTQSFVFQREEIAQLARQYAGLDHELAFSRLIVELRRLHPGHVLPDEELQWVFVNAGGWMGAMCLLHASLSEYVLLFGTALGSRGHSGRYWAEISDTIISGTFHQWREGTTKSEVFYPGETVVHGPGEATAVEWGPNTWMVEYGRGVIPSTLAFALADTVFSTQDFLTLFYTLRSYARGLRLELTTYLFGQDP

SMILES	IC50 ([1]; jurkat)	IC50 (Cytochrome P450 2C19)	Ki (Cytochrome P450 2C19)	IC50 [2]	IC50 [3]	Ki [3]	IC50 (Histamine H2 receptor; cho-k1)	IC50 (Melanocortin receptor 3)	IC50 [4]	IC50 ([1]; read-out: IC50) [µM]	Ki [1] [µM]	IC50 (Histamine H2 receptor; read-out: IC50) [µM]	Ki (Histamine H2 receptor; read-out: Ki) [µM]
CCC(=O)O[C@]1(C(=O)CCl)[C@@H](C)C[C@H]2[C@@H]3CCC4=CC(=O)C=C[C@]4(C)[C@@]3(F)[C@@H](O)C[C@@]21C [CLOBETASOL PROPIONATE]	Not Active	Not Active	Not Active	Not Active	Not Active	Not Active	Not Active	Not Active	Not Active				
O=C1CN=C(c2ccccc2Cl)c2cc([N+](=O)[O-])ccc2N1 [CLONAZEPAM]	Not Active	Not Active	Not Active	Not Active	Not Active	Not Active	Not Active	Not Active	Not Active				
C[C@@H]1C[C@H]2[C@@H]3CCC4=CC(=O)C=C[C@]4(C)[C@@]3(F)[C@@H](O)C[C@]2(C)[C@H]1C(=O)CO [DESOXIMETASONE]	Not Active	Not Active	Not Active	Not Active	Not Active	Not Active	Not Active	Not Active	Not Active				
CN(C)CC[C@@H](c1ccc(Cl)cc1)c1ccccn1 [DEXCHLORPHENIRAMINE]		Not Active	Not Active	Not Active	Not Active	Not Active		Not Active	Not Active	1.66	0.697	8.37	8.23
C[C@@H]1CC[C@@]2(OC1)O[C@H]1[C@@H](O)[C@H]3[C@@H]4CC[C@H]5C[C@@H](O[C@@H]6O[C@H](CO)[C@H](O[C@@H]7O[C@H](CO)C(O)[C@H](O[C@@H]8OC[C@@H](O)[C@H](O)[C@H]8O)[C@H]7O[C@@H]7O[C@H](CO)[C@H](O)[C@H](O[C@@H]8O[C@H](CO)[C@@H](O)[C@H](O)[C@H]8O)[C@H]7O)[C@H](O)[C@H]6O)[C@H](O)C[C@]5(C)[C@H]4CC[C@]3(C)[C@H]1[C@@H]2C (some centres not stated) [DIGITONIN]	Not Active	Not Active	Not Active	Not Active	Not Active	Not Active	Not Active	Not Active	Not Active				
OC(CCCN1CCCCC1)(c1ccccc1)c1ccccc1 [DIPHENIDOL]		Not Active	Not Active	Not Active	Not Active	Not Active	Not Active	Not Active	Not Active	0.256	0.108		
C[C@H]1O[C@@H](n2cc(F)c(=O)[nH]c2=O)[C@H](O)[C@@H]1O [DOXIFLURIDINE]	Not Active	Not Active	Not Active	Not Active	Not Active	Not Active	Not Active	Not Active	Not Active				
Cn1c(=O)c2c(ncn2CC(O)CO)n(C)c1=O (configuration not stated) [DYPHYLLINE]	Not Active	Not Active	Not Active	Not Active	Not Active	Not Active	Not Active	Not Active	Not Active				
C[C@@H](CO)NC(=O)[C@@H]1C=C2c3cccc4[nH]cc(c34)C[C@H]2N(C)C1 [ERGONOVINE]	Not Active	Not Active	Not Active	Not Active	Not Active	Not Active	Not Active	Not Active	Not Active				
COC(=O)CCc1ccc(OCC(O)CNC(C)C)cc1 (configuration not stated) [ESMOLOL]	Not Active	Not Active	Not Active	Not Active	Not Active	Not Active	Not Active	Not Active	Not Active				
CCC1(C)CC(=O)NC1=O (configuration not stated) [ETHOSUXIMIDE]	Not Active	Not Active	Not Active	Not Active	Not Active	Not Active	Not Active	Not Active	Not Active				
